{"source": "patent US9603793B2", "about": "“Nano / micro bubbles for drug delivery” (National Tsing Hua University, priority 2014, dated 2017)", "key": {"[1]": {"assay": "Pharmacokinetic test of nano/micro bubbles (plasma insulin and blood glucose)", "type": "in vivo", "conditions": "subcutaneous injection of insulin 5 IU/kg; 0 to 10 hours; FIG. 5b", "experimental": "Pharmacokinetic Test of Nano/Micro Bubbles In the present example, groups comprising nano/micro bubbles of the present invention (containing 30 IU/kg of insulin), oral administration (30 IU/kg of insulin) and subcutaneous injection of insulin (5 IU/kg) are compared. The change rates in plasma insulin and blood glucose concentration from 0 to 10 hours after subjects taking insulin or injected with insulin were recorded respectively, and the results are illustrated in FIGS. 5a and 5b."}, "[2]": {"test_system": "cells", "assay": "Cell images of cells co-cultured with the components (FITC-insulin transmission)", "type": "cell-based", "conditions": "cells co-cultured with the component; stained with Cld 4, E-cadherin and DAPI; FIG. 3"}}, "data": [{"molecule": "insulin", "values": [{"measurement": "change rate of the blood glucose", "setting": "[1]", "result": "rapidly declined and rose again"}]}, {"molecule": "CCCCCCCCCCCCOS(=O)(=O)[O-].[Na+]", "note": "[SDS, sodium dodecyl sulfate]", "values": [{"measurement": "transmission of FITC-insulin (paracellular / transcellular pathway)", "setting": "[2]", "result": "can promote transmission of FITC-insulin via both of paracellular pathway and transcellular pathway"}]}, {"molecule": "O=C(O)CN(CCN1CC(=O)OC(=O)C1)CCN1CC(=O)OC(=O)C1", "note": "[DTPA dianhydride, diethylenetriaminepentaacetic dianhydride]", "values": [{"measurement": "transmission of FITC-insulin (paracellular / transcellular pathway)", "setting": "[2]", "result": "can promote transmission of FITC-insulin via paracellular pathway"}]}]}
